Values quoted from earlier work in patent US12440499B2, “Topical composition” (MC2 Therapeutics Limited, priority 2018, dated 2025).

Settings: in presence of water

pH value for maximum stability: above 8
SMILES: C=C1/C(=C\C=C2/CCC[C@]3(C)[C@@H]([C@H](C)/C=C/[C@@H](O)C4CC4)CC[C@@H]23)C[C@@H](O)C[C@@H]1O [calcipotriol]
